The test system of assay [1] is 409B2 hiPSC (iCRISPR Cas9, FRMD7 editing). Briefly: cell survival relative to solvent control (fold (ratio to mock)); higher = more surviving cells. As to the method: (§1)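 Subset screen of 55 drugs tested at 5 concentrations around the effective screening dose, in 409B2 iCRISPR Cas9 hiPSCs editing FRMD7 with a ssDNA donor. Drugs were applied for 24 h. Viability was read by resazurin and editing outcomes by amplicon sequencing (HDR, NHEJ <2 bp microhomology, MMEJ ≥2 bp microhomology). Values are relative to solvent mock controls; two biological replicates.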

The test system is the same in assay [2]. Description: HDR (precise edit) frequency relative to solvent control (fold (ratio to mock)); higher = more homology-directed repair outcomes. The method, then:
as §1

The test system is the same in assay [3]. Briefly: MMEJ-attributed deletion frequency relative to solvent control (fold (ratio to mock)); higher = more MMEJ outcomes. The method, then:
as §1

For assay [4] the test system is unchanged. Description: NHEJ-attributed indel frequency relative to solvent control (fold (ratio to mock)); higher = more NHEJ outcomes. The method, then: as §1

Counter-ions that a name gives are not always drawn. ± gives the standard deviation of the averaged measurements.

Take `CC(=O)O[C@]1(C(C)=O)CC[C@H]2[C@@H]3C=C(Cl)C4=CC(=O)[C@@H]5C[C@@H]5[C@]4(C)[C@H]3CC[C@@]21C` [Cyproterone Acetate] (in DMSO): the cell survival in assay [1] (20 nM) was determined as 0.984; in assay [1] (50 nM), 1.23; in assay [1] (100 nM), 1.12; in assay [1] (200 nM), 1.09; in assay [1] (500 nM), 1.23. Besides, the HDR in assay [2] (20 nM) was found to be 1.1 ± 0.048; in assay [2] (50 nM), 1.119 ± 0.007; in assay [2] (100 nM), 1.09 ± 0.054; in assay [2] (200 nM), 1.03 ± 0.013; in assay [2] (500 nM), 1.14 ± 0.058. Besides, the MMEJ-attributed deletion frequency amounted to 1.18 ± 0.11 in assay [3] (20 nM); 0.986 ± 0.03 in assay [3] (50 nM); 0.9921 ± 0.0047 in assay [3] (100 nM); 0.915 ± 0.022 in assay [3] (200 nM); 0.999 ± 0.017 in assay [3] (500 nM). For the same molecule, the NHEJ-attributed indel frequency in assay [4] (20 nM) amounted to 0.962 ± 0.045; in assay [4] (50 nM), 0.9767 ± 0.0039; in assay [4] (100 nM) it was 0.9929 ± 0.0094; in assay [4] (200 nM), 1.01 ± 0.014; in assay [4] (500 nM), 0.964 ± 0.042.
Consider `Nc1ccn([C@@H]2O[C@H](CO)[C@@H](O)[C@@H]2O)c(=O)n1` [Cytarabine hydrochloride] (in DMSO), for which the cell survival worked out at 1.01 in assay [1] (20 nM); 0.968 in assay [1] (50 nM); 0.672 in assay [1] (100 nM); 0.467 in assay [1] (200 nM); 0.161 in assay [1] (500 nM). The HDR in assay [2] (20 nM) stood at 0.71 ± 0.068; in assay [2] (50 nM), 0.699 ± 0.1; in assay [2] (100 nM) it was 0.625 ± 0.018; in assay [2] (200 nM), 0.652 ± 0.11; in assay [2] (500 nM) it was 0.554 ± 0.099. Further, the MMEJ-attributed deletion frequency was 0.911 ± 0.12 in assay [3] (20 nM); 0.897 ± 0.049 in assay [3] (50 nM); 1.1 ± 0.021 in assay [3] (100 nM); 1.08 ± 0.13 in assay [3] (200 nM); 1.04 ± 0.18 in assay [3] (500 nM). In addition, the NHEJ-attributed indel frequency in assay [4] (20 nM) stood at 1.02 ± 0.026; in assay [4] (50 nM), 1.05 ± 0.022; in assay [4] (100 nM), 1.03 ± 0.0015; in assay [4] (200 nM) it was 1.01 ± 0.039; in assay [4] (500 nM) it was 1.04 ± 0.04.
As to `NC(=O)CC[C@@H](N)C(=O)O` [D-Glutamine] (in H2O), the cell survival in assay [1] (20 nM) worked out at 0.958; in assay [1] (50 nM) it was 1.03; in assay [1] (100 nM), 0.932; in assay [1] (200 nM) it was 1.16; in assay [1] (500 nM) it was 0.888. The HDR in assay [2] (20 nM) came out at 0.953 ± 0.047; in assay [2] (50 nM) it was 0.985 ± 0.033; in assay [2] (100 nM), 0.9265 ± 0.0046; in assay [2] (200 nM) it was 0.985 ± 0.031; in assay [2] (500 nM) it was 0.965 ± 0.055. Further, the MMEJ-attributed deletion frequency turned out to be 0.971 ± 0.055 in assay [3] (20 nM); 0.874 ± 0.034 in assay [3] (50 nM); 0.887 ± 0.17 in assay [3] (100 nM); 0.933 ± 0.064 in assay [3] (200 nM); 0.918 ± 0.092 in assay [3] (500 nM). For the same molecule, the NHEJ-attributed indel frequency stood at 1.02 ± 0.029 in assay [4] (20 nM); 1.03 ± 0.016 in assay [4] (50 nM); 1.02 ± 0.028 in assay [4] (100 nM); 1.03 ± 0.025 in assay [4] (200 nM); 1.01 ± 0.024 in assay [4] (500 nM).
As for `O[C@@H]1[C@H](O)[C@H](O)CO[C@H]1O` [D-Ribose] (in DMSO), the cell survival in assay [1] (200 nM) turned out to be 1.06; in assay [1] (500 nM), 1.16; in assay [1] (1000 nM) it was 1.06; in assay [1] (2000 nM), 1.1; in assay [1] (5000 nM), 1.04. In addition, the HDR worked out at 1.13 ± 0.04 in assay [2] (200 nM); 1.01 ± 0.06 in assay [2] (500 nM); 1.13 ± 0.075 in assay [2] (1000 nM); 1.05 ± 0.025 in assay [2] (2000 nM); 1.06 ± 0.05 in assay [2] (5000 nM). Moreover, the MMEJ-attributed deletion frequency in assay [3] (200 nM) is 0.939 ± 0.061; in assay [3] (500 nM) it was 1.02 ± 0.1; in assay [3] (1000 nM) it was 0.965 ± 0.026; in assay [3] (2000 nM), 1.012 ± 0.0071; in assay [3] (5000 nM), 1.02 ± 0.16. The NHEJ-attributed indel frequency was 0.9958 ± 0.0022 in assay [4] (200 nM); 0.999 ± 0.01 in assay [4] (500 nM); 0.979 ± 0.013 in assay [4] (1000 nM); 1 ± 0.012 in assay [4] (2000 nM); 0.9861 ± 0.0075 in assay [4] (5000 nM).
For `O=C1CN(/N=C/c2ccc(-c3ccc([N+](=O)[O-])cc3)o2)C(=O)N1` [Dantrolene, sodium salt] (in DMSO), the cell survival was 0.934 in assay [1] (2000 nM); 1.39 in assay [1] (5000 nM); 1.14 in assay [1] (10000 nM); 1.33 in assay [1] (20000 nM); 1.33 in assay [1] (50000 nM). In addition, the HDR was 1.04 ± 0.091 in assay [2] (2000 nM); 0.873 ± 0.12 in assay [2] (5000 nM); 0.851 ± 0.068 in assay [2] (10000 nM); 0.547 ± 0.039 in assay [2] (20000 nM); 0.508 ± 0.039 in assay [2] (50000 nM). For the same molecule, the MMEJ-attributed deletion frequency amounted to 1.09 ± 0.25 in assay [3] (2000 nM); 0.966 ± 0.099 in assay [3] (5000 nM); 0.9399 ± 0.0032 in assay [3] (10000 nM); 0.997 ± 0.048 in assay [3] (20000 nM); 0.979 ± 0.13 in assay [3] (50000 nM). In addition, the NHEJ-attributed indel frequency was 0.941 ± 0.052 in assay [4] (2000 nM); 0.9996 ± 0.0056 in assay [4] (5000 nM); 1.06 ± 0.0076 in assay [4] (10000 nM); 1.199 ± 0.0027 in assay [4] (20000 nM); 1.24 ± 0.034 in assay [4] (50000 nM).
Regarding `CCCCc1oc2ccc(NS(C)(=O)=O)cc2c1C(=O)c1ccc(OCCCN(CCCC)CCCC)cc1` [Dronedarone HCl] (in DMSO), the cell survival was determined as 1.15 in assay [1] (200 nM); 1.01 in assay [1] (500 nM); 0.696 in assay [1] (1000 nM); 0.521 in assay [1] (2000 nM); 0.261 in assay [1] (5000 nM). The HDR in assay [2] (200 nM) came to 0.891 ± 0.2; in assay [2] (500 nM), 0.835 ± 0.2; in assay [2] (1000 nM) it was 0.734 ± 0.051; in assay [2] (2000 nM) it was 0.513 ± 0.071; in assay [2] (5000 nM), 0.556 ± 0.012. The MMEJ-attributed deletion frequency in assay [3] (200 nM) is 0.537 ± 0.76; in assay [3] (500 nM) it was 0.463 ± 0.65; in assay [3] (1000 nM), 0.895 ± 0.18; in assay [3] (2000 nM), 0.923 ± 0.16; in assay [3] (5000 nM), 1.18 ± 0.34. For the same molecule, the NHEJ-attributed indel frequency was 0.991 ± 0.011 in assay [4] (200 nM); 1.04 ± 0.043 in assay [4] (500 nM); 1.01 ± 0.013 in assay [4] (1000 nM); 0.958 ± 0.093 in assay [4] (2000 nM); 1.06 ± 0.092 in assay [4] (5000 nM).

Source of the values: the supplement of paper PMC12698765.
